In article PMC5053523, “In Vitro Antibacterial Activity of Rhodanine Derivatives against Pathogenic Clinical Isolates” (PLoS ONE, 2016):
Values after ≈ are worked out from the molar mass of the structure shown. Like-named read-outs stand apart in the source and are kept apart here.

Experiments:
[1] = test system: Acinetobacter baumannii; experiment: MIC with/without PMBN, Acinetobacter baumannii; type: cell-based
Method in brief: (§1)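 Sub-MIC colistin or PMBN added to broth MIC tests of rhodanines and reference antibiotics against Gram-negative strains; AcrAB efflux-deficient E. coli SM1411ΔacrAB also tested.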

[2] = test system: Acinetobacter baumannii; experiment: Broth microdilution MIC, Acinetobacter baumannii; type: cell-based
[3] = test system: methicillin-resistant Staphylococcus aureus (MRSA); experiment: Broth microdilution MIC/MBC, MRSA; type: cell-based
[4] = test system: B. licheniformis; experiment: Broth microdilution MIC/MBC, B. licheniformis; type: cell-based; conditions: Bacillus licheniformis; for MBC: read-out: MBC; for MIC: read-out: MIC
[5] = test system: vancomycin resistant enterococci (VRE); experiment: Broth microdilution MIC50/MIC90, VRE panel; type: cell-based; conditions: Enterococcus, 10 VRE strains
[6] = test system: Acinetobacter baumannii; experiment: MIC with/without sub-MIC colistin, Acinetobacter baumannii; type: cell-based
Method in brief: as §1

[7] = test system: Klebsiella pneumoniae; experiment: MIC with/without sub-MIC colistin, Klebsiella pneumoniae; type: cell-based
Method in brief: as §1

[8] = test system: Candida albicans; experiment: MIC against Candida albicans; type: cell-based; conditions: table prints none, read-out: MIC
[9] = test system: Salmonella Typhimurium; experiment: MIC with/without sub-MIC colistin, Salmonella Typhimurium; type: cell-based
Method in brief: as §1

[10] = test system: K. pneumoniae; experiment: Broth microdilution MIC, K. pneumoniae; type: cell-based
[11] = test system: Pseudomonas aeruginosa; experiment: MIC with/without PMBN, Pseudomonas aeruginosa; type: cell-based
Method in brief: as §1

[12] = test system: Bacillus anthracis; experiment: microbe, parasite or virus in culture; type: cell-based
[13] = test system: Klebsiella pneumoniae; experiment: MIC with/without PMBN, Klebsiella pneumoniae; type: cell-based
Method in brief: as §1

[14] = test system: Escherichia coli O157:H7; experiment: MIC with/without sub-MIC colistin, Escherichia coli O157:H7; type: cell-based
Method in brief: as §1

[15] = test system: Pseudomonas aeruginosa; experiment: MIC with/without sub-MIC colistin, Pseudomonas aeruginosa; type: cell-based
Method in brief: as §1

[16] = test system: MRSA USA300; experiment: MIC against MRSA USA300 with and without 4% human serum albumin; type: cell-based, Staphylococcus aureus; conditions: Staphylococcus aureus, read-out: MIC against MRSA USA300
Method in brief: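 MIC measured in tryptic soy broth spiked with 4% HSA and without it, using CLSI broth microdilution on MRSA USA300. Value reported is the lowest concentration preventing bacterial growth.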

[17] = Acinetobacter baumannii, ATCCBAA747
[18] = Acinetobacter baumannii, ATCCBAA19606
[19] = NCIB9375, B. licheniformis Gibson 46 (NCIB 9375) NR-2494
[20] = NRS712, B. licheniformis NRS 712 NR-2499

Which MIC ([1]; Acinetobacter baumannii ATCC BAA747, PMBN (+) 4 μg/mL, read-out: MIC) does the source give for `O=C(O)[C@H](Cc1ccccc1)N1C(=O)/C(=C/c2cccc(OC/C=C/c3ccc(Cl)c(Cl)c3)c2)SC1=S` [Rh 6] here?
The MIC was over 64 µM.

What about the MIC ([1]; Acinetobacter baumannii ATCC BAA19606, PMBN (+) 4 μg/mL, read-out: MIC) of the same compound?
The MIC was over 64 µM.

What about the MIC [1, 17] of the same compound?
Its MIC is over 128 µM.

And the MIC [1, 18]?
The MIC was over 128 µM.

What about the MIC ([2]; ATCC13345) of the same compound?
Its MIC is over 128 µM.

What about the MIC ([2]; ATCC17786) of the same compound?
Its MIC is over 128 µM.

And the MIC50 ([3]; 11 MRSA strains)?
Its MIC50 is 4 µM (≈ 2.28 µg/mL).

And the MIC90 ([3]; 11 MRSA strains)?
The MIC90 was 8 µM (≈ 4.56 µg/mL).

What about the MBC ([3]; MRSA NRS 1) of the same compound?
The MBC was 8 µM (≈ 4.56 µg/mL).

And the MIC ([3]; MRSA NRS 1)?
The MIC was 8 µM (≈ 4.56 µg/mL).

And the MBC ([3]; MRSA NRS 19)?
The MBC was 8 µM (≈ 4.56 µg/mL).

What about the MIC ([3]; MRSA NRS 19) of the same compound?
Its MIC is 8 µM (≈ 4.56 µg/mL).

And the MBC ([3]; MRSA NRS 37)?
Its MBC is 16 µM (≈ 9.13 µg/mL).

What about the MIC ([3]; MRSA NRS 37) of the same compound?
Its MIC is 8 µM (≈ 4.56 µg/mL).

What about the MBC ([3]; MRSA NRS 107) of the same compound?
The MBC was 8 µM (≈ 4.56 µg/mL).

And the MIC ([3]; MRSA NRS 107)?
The MIC was 8 µM (≈ 4.56 µg/mL).

And the MBC ([3]; MRSA NRS 119)?
Its MBC is 4 µM (≈ 2.28 µg/mL).

And the MIC ([3]; MRSA NRS 119)?
Its MIC is 4 µM (≈ 2.28 µg/mL).

And the MBC ([3]; MRSA NRS 382)?
Its MBC is 16 µM (≈ 9.13 µg/mL).

And the MIC ([3]; MRSA NRS 382)?
Its MIC is 4 µM (≈ 2.28 µg/mL).

What about the MBC ([3]; MRSA NRS 383) of the same compound?
The MBC was 8 µM (≈ 4.56 µg/mL).

And the MIC ([3]; MRSA NRS 383)?
Its MIC is 4 µM (≈ 2.28 µg/mL).

And the MBC ([3]; MRSA NRS 384)?
The MBC was 4 µM (≈ 2.28 µg/mL).

What about the MIC ([3]; MRSA NRS 384) of the same compound?
Its MIC is 4 µM (≈ 2.28 µg/mL).

And the MBC ([3]; MRSA NRS 385)?
Its MBC is 4 µM (≈ 2.28 µg/mL).

And the MIC ([3]; MRSA NRS 385)?
The MIC was 4 µM (≈ 2.28 µg/mL).

And the MBC ([3]; MRSA NRS 386)?
The MBC was 32 µM (≈ 18.3 µg/mL).

And the MIC ([3]; MRSA NRS 386)?
Its MIC is 4 µM (≈ 2.28 µg/mL).

What about the MBC ([3]; MRSA NRS 387) of the same compound?
Its MBC is 8 µM (≈ 4.56 µg/mL).

And the MIC ([3]; MRSA NRS 387)?
Its MIC is 4 µM (≈ 2.28 µg/mL).

And the MBC [4, 19]?
Its MBC is 4 µM (≈ 2.28 µg/mL).

And the MIC [4, 19]?
Its MIC is 4 µM (≈ 2.28 µg/mL).

And the MBC [4, 20]?
The MBC was 4 µM (≈ 2.28 µg/mL).

And the MIC [4, 20]?
Its MIC is 4 µM (≈ 2.28 µg/mL).

What about the MIC90 ([5]; VRE, read-out: MIC 90) of the same compound?
Its MIC90 is 8 µM (≈ 4.56 µg/mL).

What about the MIC50 ([5]; read-out: MIC 50) of the same compound?
The MIC50 was 8 µM (≈ 4.56 µg/mL).

And the MIC ([6]; Acinetobacter baumannii ATCC BAA747, colistin (+) […], read-out: MIC)?
Its MIC is over 64 µM.

What about the MIC ([6]; Acinetobacter baumannii ATCC BAA19606, colistin (+) […], read-out: MIC) of the same compound?
The MIC was over 64 µM.

What about the MIC [6, 17] of the same compound?
The MIC was over 128 µM.

And the MIC [6, 18]?
The MIC was over 128 µM.

And the MIC ([7]; Klebsiella pneumoniae ATCC BAA 2146, colistin (+) […])?
The MIC was over 64 µM.

What about the MIC ([7]; Klebsiella pneumoniae, BAA2146) of the same compound?
Its MIC is over 128 µM.

What about the MIC ([8]; ATCC10231, C. albicans ATCC 10231, unit from abstract) of the same compound?
The MIC was over 64 µM.

And the MIC ([8]; C. albicans NR 29434, unit from abstract)?
Its MIC is over 64 µM.

What about the MIC ([8]; C. albicans NR 29435, unit from abstract) of the same compound?
Its MIC is over 64 µM.

What about the MIC ([8]; C. albicans NR29437, unit from abstract) of the same compound?
Its MIC is over 64 µM.

And the MIC ([8]; C. albicans NR29438, unit from abstract)?
Its MIC is over 64 µM.

And the MIC ([8]; C. albicans NR 29446, unit from abstract)?
The MIC was over 64 µM.

And the MIC ([8]; C. albicans NR 29448, unit from abstract)?
The MIC was over 64 µM.

And the MIC ([8]; C. albicans NR 29449, unit from abstract)?
Its MIC is over 64 µM.

What about the MIC ([8]; C. albicans NR 29453, unit from abstract) of the same compound?
The MIC was over 64 µM.

And the MIC ([8]; C. albicans NR 294436, unit from abstract)?
Its MIC is over 64 µM.

And the MIC ([9]; Salmonella Typhimurium ATCC 700720, colistin (+) […], read-out: MIC)?
The MIC was over 64 µM.

And the MIC ([9]; Salmonella enterica, ATCC 700720 / TYPHIMURIUM)?
Its MIC is over 128 µM.

What about the MIC ([10]; K. pneumoniae NR-15417) of the same compound?
The MIC was over 128 µM.

What about the MIC ([10]; Klebsiella pneumoniae) of the same compound?
Its MIC is over 128 µM.

And the MIC ([11]; Pseudomonas aeruginosa ATCC 9721, PMBN (+) 4 μg/mL, read-out: MIC)?
Its MIC is over 64 µM.

What about the MIC ([11]; Pseudomonas aeruginosa, ATCC9721) of the same compound?
The MIC was over 128 µM.

What about the MBC ([12]; Bacillus anthracis AMES35) of the same compound?
The MBC was 2 µM (≈ 1.14 µg/mL).

What about the MIC ([12]; Bacillus anthracis AMES35) of the same compound?
The MIC was 2 µM (≈ 1.14 µg/mL).

And the MBC ([12]; Bacillus anthracis UM23)?
Its MBC is 2 µM (≈ 1.14 µg/mL).

What about the MIC ([12]; Bacillus anthracis UM23) of the same compound?
Its MIC is 2 µM (≈ 1.14 µg/mL).

What about the MBC ([12]; Bacillus anthracis Weybridge) of the same compound?
The MBC was 2 µM (≈ 1.14 µg/mL).

What about the MIC ([12]; Bacillus anthracis Weybridge) of the same compound?
Its MIC is 2 µM (≈ 1.14 µg/mL).

What about the MIC ([13]; Klebsiella pneumoniae ATCC BAA 1706, PMBN (+) 4 μg/mL) of the same compound?
The MIC was over 64 µM.

And the MIC ([13]; Klebsiella pneumoniae ATCC BAA 2146, PMBN (+) 4 μg/mL)?
Its MIC is over 64 µM.

And the MIC ([13]; Klebsiella pneumoniae, BAA1706)?
Its MIC is over 128 µM.

And the MIC ([13]; Klebsiella pneumoniae, BAA2146)?
The MIC was over 128 µM.

And the MIC ([14]; Escherichia coli O157:H7 ATCC 35150, colistin (+) […], read-out: MIC)?
The MIC was over 64 µM.

And the MIC ([14]; Escherichia coli O157:H7 ATCC 700728, colistin (+) […], read-out: MIC)?
Its MIC is over 64 µM.

And the MIC ([14]; Escherichia coli, ATCC35150)?
Its MIC is over 128 µM.

And the MIC ([14]; Escherichia coli, ATCC700728)?
Its MIC is over 128 µM.

And the MIC ([15]; Pseudomonas aeruginosa ATCC 921, colistin (+) […], read-out: MIC)?
Its MIC is over 64 µM.

What about the MIC ([15]; Pseudomonas aeruginosa, ATCC921) of the same compound?
The MIC was over 128 µM.

And the MIC ([16]; 24 h, Media TSB + 4% HSA)?
The MIC was over 64 µM.

And the MIC ([16]; Media TSB)?
The MIC was 8 µM (≈ 4.56 µg/mL).
